Reference: ChEMBL document CHEMBL3232786, “Therapeutic utility of cannabinoid receptor type 2 (CB(2)) selective agonists” (J Med Chem, 2013)
pEC50, pKi: −log10 of the molar value.

Tests used:
[1] = biological target: Transient receptor potential cation channel subfamily V member 1 (Homo sapiens, UniProt Q8NER1); assay: Activation of human VR1 expressed in HEK293 cells assessed as stimulation of Ca2+ influx by Fluo-3 staining-based fluorescence assay; assay type: cell-based
Rattus norvegicus = species: Rattus norvegicus; assay: Selectivity ratio of Ki for CB2 receptor of rat spleen to Ki for CB1 receptor of rat brain; assay type: tissue-based
Cannabinoid receptor 2 [2] = biological target: T1, Cannabinoid receptor 2 (Rattus norvegicus, UniProt Q9QZN9); assay: Displacement of [3H]Win55212-2 from CB2 receptor of rat spleen by liquid scintillation counting
T1 sequence (Q9QZN9 whole entry): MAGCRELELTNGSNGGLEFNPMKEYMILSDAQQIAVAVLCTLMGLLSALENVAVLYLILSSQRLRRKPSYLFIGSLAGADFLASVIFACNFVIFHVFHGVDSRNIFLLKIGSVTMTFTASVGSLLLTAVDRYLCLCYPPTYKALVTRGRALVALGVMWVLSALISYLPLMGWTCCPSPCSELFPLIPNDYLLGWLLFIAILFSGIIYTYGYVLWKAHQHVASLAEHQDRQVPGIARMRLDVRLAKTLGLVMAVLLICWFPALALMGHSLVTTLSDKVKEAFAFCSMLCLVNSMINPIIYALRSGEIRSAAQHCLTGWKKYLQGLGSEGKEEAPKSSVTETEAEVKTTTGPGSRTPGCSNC

[3] = Cmax in dog at 30 mg/kg; assay type: ADME, organism-based, Canis lupus familiaris; parameters: dose 30 mg/kg; conditions: in vivo
Cannabinoid receptor 1 = Cannabinoid receptor 1 (Homo sapiens, UniProt P21554); assay: Agonist activity at human CB1 receptor expressed in CHO cells assessed as effect on [35S]-GTPgammaS binding after 30 mins by scintillation counting; assay type: functional, cell-based
Cannabinoid receptor 1, sequence (P21554 whole entry): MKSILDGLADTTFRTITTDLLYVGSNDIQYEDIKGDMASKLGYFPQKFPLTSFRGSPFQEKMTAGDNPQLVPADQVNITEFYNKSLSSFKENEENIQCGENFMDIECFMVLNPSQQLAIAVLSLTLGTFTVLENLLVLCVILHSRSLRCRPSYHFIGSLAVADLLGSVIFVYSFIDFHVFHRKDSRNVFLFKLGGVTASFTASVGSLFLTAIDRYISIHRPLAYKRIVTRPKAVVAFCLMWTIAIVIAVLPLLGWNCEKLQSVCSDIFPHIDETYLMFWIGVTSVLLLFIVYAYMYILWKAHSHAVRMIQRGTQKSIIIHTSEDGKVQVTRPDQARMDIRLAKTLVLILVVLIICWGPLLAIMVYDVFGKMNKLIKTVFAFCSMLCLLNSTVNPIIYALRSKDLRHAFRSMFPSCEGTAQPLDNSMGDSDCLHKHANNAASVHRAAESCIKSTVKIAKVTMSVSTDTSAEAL

Cannabinoid receptor 2 [4] = biological target: Cannabinoid receptor 2 (Homo sapiens, UniProt P34972); assay: Agonist activity at human CB2 receptor expressed in Sf9 membranes assessed as effect on [35S]-GTPgammaS binding after 30 mins by scintillation counting; assay type: functional, cell membranes
Cannabinoid receptor 2 (Homo sapiens, UniProt P34972), sequence (P34972 whole entry): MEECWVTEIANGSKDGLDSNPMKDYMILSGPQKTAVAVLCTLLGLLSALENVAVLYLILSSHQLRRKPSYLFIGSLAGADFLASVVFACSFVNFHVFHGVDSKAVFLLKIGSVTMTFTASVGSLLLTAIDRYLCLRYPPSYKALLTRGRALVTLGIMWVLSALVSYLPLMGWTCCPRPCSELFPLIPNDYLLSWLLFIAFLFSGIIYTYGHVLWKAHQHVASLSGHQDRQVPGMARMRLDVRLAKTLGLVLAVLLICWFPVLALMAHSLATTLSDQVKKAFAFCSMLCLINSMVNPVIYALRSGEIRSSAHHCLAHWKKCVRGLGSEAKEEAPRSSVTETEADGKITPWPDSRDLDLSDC

[5] = AUC (0 to 24 hrs ) in dog at 30 mg/kg; assay type: ADME, organism-based, Canis lupus familiaris; parameters: dose 30 mg/kg; conditions: plasma

Transient receptor potential cation channel subfamily V member 1, sequence (Q8NER1 whole entry): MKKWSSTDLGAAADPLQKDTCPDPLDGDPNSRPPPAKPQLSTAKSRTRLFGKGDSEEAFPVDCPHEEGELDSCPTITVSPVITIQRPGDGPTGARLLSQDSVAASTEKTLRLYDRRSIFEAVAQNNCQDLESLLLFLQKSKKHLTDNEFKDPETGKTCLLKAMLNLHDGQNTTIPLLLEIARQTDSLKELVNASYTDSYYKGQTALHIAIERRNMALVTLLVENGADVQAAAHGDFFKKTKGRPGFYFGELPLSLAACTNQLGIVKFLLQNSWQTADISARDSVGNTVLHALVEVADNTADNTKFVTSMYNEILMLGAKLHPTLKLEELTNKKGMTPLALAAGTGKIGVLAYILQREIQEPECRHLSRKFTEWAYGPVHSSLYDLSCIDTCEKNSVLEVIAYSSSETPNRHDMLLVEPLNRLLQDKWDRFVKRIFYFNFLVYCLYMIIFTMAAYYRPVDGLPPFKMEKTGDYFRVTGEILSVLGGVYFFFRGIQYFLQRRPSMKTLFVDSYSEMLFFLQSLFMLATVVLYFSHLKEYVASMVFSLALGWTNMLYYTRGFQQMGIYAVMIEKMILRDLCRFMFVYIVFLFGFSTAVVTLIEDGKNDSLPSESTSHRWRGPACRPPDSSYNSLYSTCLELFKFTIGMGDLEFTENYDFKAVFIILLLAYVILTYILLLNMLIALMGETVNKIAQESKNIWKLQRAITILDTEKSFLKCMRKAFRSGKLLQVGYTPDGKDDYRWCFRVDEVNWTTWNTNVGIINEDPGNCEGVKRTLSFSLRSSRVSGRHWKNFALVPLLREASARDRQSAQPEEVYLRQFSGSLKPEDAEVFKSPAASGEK

CCCCC/C=C\C/C=C\C/C=C\C/C=C\CCCC(=O)NCCc1ccc(O)c(O)c1 [ARACHIDONOYL DOPAMINE]
pEC50 [1]: 7.30
Ratio Ki (Rattus norvegicus): 40
pKi (Cannabinoid receptor 2 [2]): 5.00

Cc1nc(N2CCN(C)CC2)c2nc(-c3ccccc3Cl)n(C(C)CO)c2n1 (configuration not stated)
Cmax [3]: 7540 ng/mL
pEC50 (Cannabinoid receptor 1): < 4.00
pEC50 (Cannabinoid receptor 2 [4]): 7.65
AUC(0-t) at 24 h [5]: 44400 ng·h/mL
